Normalised inhibition (eCFP-eYFP dual reporter) data for 14 substances are collected here from the OligoGym collection.

Oligonucleotides are given in HELM: sugar(base)linkage, 5' to 3'; d 2'-deoxyribose, r ribose, m 2'-O-methylribose, p phosphate. ss, as = sense and antisense strand
Further: test concentration or dose not given here.

The target of the series is Mmp7 (rat). Put plainly: reporter assay of Huesken 2005. The note with it: siRNA. Background: Reporter assays use an easily measured gene product as a stand-in for the process of interest.
In the case of “RNA1{r(C)p.r(G)p.r(A)p.r(C)p.r(U)p.r(C)p.r(U)p.r(A)p.r(A)p.r(A)p.r(A)p.r(C)p.r(A)p.r(A)p.r(A)p.r(G)p.r(A)p.r(A)p.r(G)p.d(T)p.d(T)}|RNA2{r(C)p.r(U)p.r(U)p.r(C)p.r(U)p.r(U)p.r(U)p.r(G)p.r(U)p.r(U)p.r(U)p.r(U)p.r(A)p.r(G)p.r(A)p.r(G)p.r(U)p.r(C)p.r(G)p.d(T)p.d(G)}$$$RNA1{StrandType:ss}|RNA2{StrandType:as}$”, the normalised inhibition (eCFP-eYFP dual reporter) was 113%.

For the substance “RNA1{r(C)p.r(C)p.r(U)p.r(G)p.r(C)p.r(C)p.r(A)p.r(C)p.r(U)p.r(G)p.r(U)p.r(C)p.r(C)p.r(C)p.r(A)p.r(G)p.r(G)p.r(A)p.r(A)p.d(T)p.d(T)}|RNA2{r(U)p.r(U)p.r(C)p.r(C)p.r(U)p.r(G)p.r(G)p.r(G)p.r(A)p.r(C)p.r(A)p.r(G)p.r(U)p.r(G)p.r(G)p.r(C)p.r(A)p.r(G)p.r(G)p.d(G)p.d(C)}$$$RNA1{StrandType:ss}|RNA2{StrandType:as}$”, the normalised inhibition (eCFP-eYFP dual reporter) is 67.9%.

In the case of “RNA1{r(A)p.r(A)p.r(A)p.r(C)p.r(U)p.r(G)p.r(A)p.r(G)p.r(G)p.r(G)p.r(A)p.r(A)p.r(A)p.r(U)p.r(G)p.r(C)p.r(A)p.r(G)p.r(A)p.d(T)p.d(T)}|RNA2{r(U)p.r(C)p.r(U)p.r(G)p.r(C)p.r(A)p.r(U)p.r(U)p.r(U)p.r(C)p.r(C)p.r(C)p.r(U)p.r(C)p.r(A)p.r(G)p.r(U)p.r(U)p.r(U)p.d(G)p.d(T)}$$$RNA1{StrandType:ss}|RNA2{StrandType:as}$”, the normalised inhibition (eCFP-eYFP dual reporter) came out at 116%.

Take “RNA1{r(G)p.r(C)p.r(C)p.r(U)p.r(C)p.r(G)p.r(G)p.r(C)p.r(G)p.r(G)p.r(A)p.r(G)p.r(A)p.r(U)p.r(G)p.r(C)p.r(U)p.r(C)p.r(A)p.d(T)p.d(T)}|RNA2{r(U)p.r(G)p.r(A)p.r(G)p.r(C)p.r(A)p.r(U)p.r(C)p.r(U)p.r(C)p.r(C)p.r(G)p.r(C)p.r(C)p.r(G)p.r(A)p.r(G)p.r(G)p.r(C)p.d(C)p.d(T)}$$$RNA1{StrandType:ss}|RNA2{StrandType:as}$”: the normalised inhibition (eCFP-eYFP dual reporter) was found to be 90.2%.

For “RNA1{r(G)p.r(C)p.r(A)p.r(G)p.r(U)p.r(G)p.r(G)p.r(A)p.r(C)p.r(A)p.r(A)p.r(A)p.r(C)p.r(U)p.r(G)p.r(A)p.r(G)p.r(G)p.r(G)p.d(T)p.d(T)}|RNA2{r(C)p.r(C)p.r(C)p.r(U)p.r(C)p.r(A)p.r(G)p.r(U)p.r(U)p.r(U)p.r(G)p.r(U)p.r(C)p.r(C)p.r(A)p.r(C)p.r(U)p.r(G)p.r(C)p.d(A)p.d(C)}$$$RNA1{StrandType:ss}|RNA2{StrandType:as}$”, the normalised inhibition (eCFP-eYFP dual reporter) was found to be 32.3%.

Regarding “RNA1{r(G)p.r(G)p.r(C)p.r(C)p.r(A)p.r(C)p.r(U)p.r(C)p.r(U)p.r(C)p.r(U)p.r(G)p.r(G)p.r(G)p.r(U)p.r(C)p.r(U)p.r(G)p.r(G)p.d(T)p.d(T)}|RNA2{r(C)p.r(C)p.r(A)p.r(G)p.r(A)p.r(C)p.r(C)p.r(C)p.r(A)p.r(G)p.r(A)p.r(G)p.r(A)p.r(G)p.r(U)p.r(G)p.r(G)p.r(C)p.r(C)p.d(A)p.d(A)}$$$RNA1{StrandType:ss}|RNA2{StrandType:as}$”, the normalised inhibition (eCFP-eYFP dual reporter) was determined as 41.4%.

As to “RNA1{r(G)p.r(C)p.r(A)p.r(G)p.r(A)p.r(C)p.r(A)p.r(U)p.r(C)p.r(A)p.r(U)p.r(A)p.r(A)p.r(U)p.r(U)p.r(G)p.r(G)p.r(C)p.r(U)p.d(T)p.d(T)}|RNA2{r(A)p.r(G)p.r(C)p.r(C)p.r(A)p.r(A)p.r(U)p.r(U)p.r(A)p.r(U)p.r(G)p.r(A)p.r(U)p.r(G)p.r(U)p.r(C)p.r(U)p.r(G)p.r(C)p.d(A)p.d(G)}$$$RNA1{StrandType:ss}|RNA2{StrandType:as}$”, the normalised inhibition (eCFP-eYFP dual reporter) is 95.9%.

Consider “RNA1{r(G)p.r(C)p.r(C)p.r(A)p.r(C)p.r(U)p.r(C)p.r(A)p.r(U)p.r(G)p.r(A)p.r(A)p.r(C)p.r(U)p.r(U)p.r(G)p.r(G)p.r(C)p.r(C)p.d(T)p.d(T)}|RNA2{r(G)p.r(G)p.r(C)p.r(C)p.r(A)p.r(A)p.r(G)p.r(U)p.r(U)p.r(C)p.r(A)p.r(U)p.r(G)p.r(A)p.r(G)p.r(U)p.r(G)p.r(G)p.r(C)p.d(A)p.d(A)}$$$RNA1{StrandType:ss}|RNA2{StrandType:as}$”, for which the normalised inhibition (eCFP-eYFP dual reporter) was found to be 62.2%.

Turning to “RNA1{r(C)p.r(C)p.r(C)p.r(A)p.r(G)p.r(G)p.r(A)p.r(A)p.r(G)p.r(C)p.r(C)p.r(G)p.r(G)p.r(A)p.r(G)p.r(A)p.r(A)p.r(G)p.r(U)p.d(T)p.d(T)}|RNA2{r(A)p.r(C)p.r(U)p.r(U)p.r(C)p.r(U)p.r(C)p.r(C)p.r(G)p.r(G)p.r(C)p.r(U)p.r(U)p.r(C)p.r(C)p.r(U)p.r(G)p.r(G)p.r(G)p.d(A)p.d(C)}$$$RNA1{StrandType:ss}|RNA2{StrandType:as}$”, the normalised inhibition (eCFP-eYFP dual reporter) was 64.2%.

Take “RNA1{r(U)p.r(G)p.r(C)p.r(A)p.r(G)p.r(A)p.r(A)p.r(U)p.r(U)p.r(C)p.r(U)p.r(C)p.r(A)p.r(C)p.r(U)p.r(A)p.r(A)p.r(U)p.r(G)p.d(T)p.d(T)}|RNA2{r(C)p.r(A)p.r(U)p.r(U)p.r(A)p.r(G)p.r(U)p.r(G)p.r(A)p.r(G)p.r(A)p.r(A)p.r(U)p.r(U)p.r(C)p.r(U)p.r(G)p.r(C)p.r(A)p.d(A)p.d(C)}$$$RNA1{StrandType:ss}|RNA2{StrandType:as}$”: the normalised inhibition (eCFP-eYFP dual reporter) was 72.9%.

Turning to “RNA1{r(A)p.r(A)p.r(G)p.r(G)p.r(A)p.r(U)p.r(G)p.r(A)p.r(G)p.r(U)p.r(A)p.r(C)p.r(U)p.r(G)p.r(G)p.r(A)p.r(C)p.r(G)p.r(G)p.d(T)p.d(T)}|RNA2{r(C)p.r(C)p.r(G)p.r(U)p.r(C)p.r(C)p.r(A)p.r(G)p.r(U)p.r(A)p.r(C)p.r(U)p.r(C)p.r(A)p.r(U)p.r(C)p.r(C)p.r(U)p.r(U)p.d(G)p.d(T)}$$$RNA1{StrandType:ss}|RNA2{StrandType:as}$”, the normalised inhibition (eCFP-eYFP dual reporter) was determined as 75.8%.

With “RNA1{r(G)p.r(G)p.r(A)p.r(C)p.r(A)p.r(A)p.r(A)p.r(C)p.r(U)p.r(G)p.r(A)p.r(G)p.r(G)p.r(G)p.r(A)p.r(A)p.r(A)p.r(U)p.r(G)p.d(T)p.d(T)}|RNA2{r(C)p.r(A)p.r(U)p.r(U)p.r(U)p.r(C)p.r(C)p.r(C)p.r(U)p.r(C)p.r(A)p.r(G)p.r(U)p.r(U)p.r(U)p.r(G)p.r(U)p.r(C)p.r(C)p.d(A)p.d(C)}$$$RNA1{StrandType:ss}|RNA2{StrandType:as}$”, the normalised inhibition (eCFP-eYFP dual reporter) amounted to 83%.

Consider “RNA1{r(U)p.r(A)p.r(U)p.r(C)p.r(U)p.r(U)p.r(A)p.r(G)p.r(G)p.r(A)p.r(A)p.r(A)p.r(U)p.r(U)p.r(U)p.r(U)p.r(A)p.r(C)p.r(C)p.d(T)p.d(T)}|RNA2{r(G)p.r(G)p.r(U)p.r(A)p.r(A)p.r(A)p.r(A)p.r(U)p.r(U)p.r(U)p.r(C)p.r(C)p.r(U)p.r(A)p.r(A)p.r(G)p.r(A)p.r(U)p.r(A)p.d(A)p.d(T)}$$$RNA1{StrandType:ss}|RNA2{StrandType:as}$”, for which the normalised inhibition (eCFP-eYFP dual reporter) came to 28.4%.

As for “RNA1{r(G)p.r(G)p.r(A)p.r(A)p.r(G)p.r(C)p.r(C)p.r(G)p.r(G)p.r(A)p.r(G)p.r(A)p.r(A)p.r(G)p.r(U)p.r(G)p.r(A)p.r(C)p.r(C)p.d(T)p.d(T)}|RNA2{r(G)p.r(G)p.r(U)p.r(C)p.r(A)p.r(C)p.r(U)p.r(U)p.r(C)p.r(U)p.r(C)p.r(C)p.r(G)p.r(G)p.r(C)p.r(U)p.r(U)p.r(C)p.r(C)p.d(T)p.d(G)}$$$RNA1{StrandType:ss}|RNA2{StrandType:as}$”, the normalised inhibition (eCFP-eYFP dual reporter) is 83%.
